From patent US20240174637A1, “DEGRADERS OF GRK2 AND USES THEREOF” (Sonata Therapeutics, Inc., priority 2021, published 2024)

How the values were obtained:
PAXF1657 EV = test: 7-day cellular proliferation assay (CellTiter-Glo), PAXF1657 EV; type: cell-based; details: 168 h, 7-day, read-out: 7-day proliferation assay: IC50 GeoMean (uM) [Cell Line: PAXF1657 EV]
Summary of the method: (§1)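 500 cells/well, RPMI1640 + 10% H.I. FBS, adhered overnight at 37° C. Compound 10-pt dilution, 30 μM-0.0002 μM final, 0.3% DMSO. 3 d, media + compound replaced, further 4 d. Viability by CellTiter-Glo; untreated plates read at time of dosing.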

GRK2 = target: T1, GRK2 (Homo sapiens, UniProt P25098); test: Second ADPGlo GRK2 Inhibition Assay (Example 3); type: biochemical; details: ADP-Glo, 20 μM ATP; read-out: Second ADPGlo Enzymatic GRK2 Assay: IC50 (nM) (Example 3)
T1 sequence (P25098 1-689): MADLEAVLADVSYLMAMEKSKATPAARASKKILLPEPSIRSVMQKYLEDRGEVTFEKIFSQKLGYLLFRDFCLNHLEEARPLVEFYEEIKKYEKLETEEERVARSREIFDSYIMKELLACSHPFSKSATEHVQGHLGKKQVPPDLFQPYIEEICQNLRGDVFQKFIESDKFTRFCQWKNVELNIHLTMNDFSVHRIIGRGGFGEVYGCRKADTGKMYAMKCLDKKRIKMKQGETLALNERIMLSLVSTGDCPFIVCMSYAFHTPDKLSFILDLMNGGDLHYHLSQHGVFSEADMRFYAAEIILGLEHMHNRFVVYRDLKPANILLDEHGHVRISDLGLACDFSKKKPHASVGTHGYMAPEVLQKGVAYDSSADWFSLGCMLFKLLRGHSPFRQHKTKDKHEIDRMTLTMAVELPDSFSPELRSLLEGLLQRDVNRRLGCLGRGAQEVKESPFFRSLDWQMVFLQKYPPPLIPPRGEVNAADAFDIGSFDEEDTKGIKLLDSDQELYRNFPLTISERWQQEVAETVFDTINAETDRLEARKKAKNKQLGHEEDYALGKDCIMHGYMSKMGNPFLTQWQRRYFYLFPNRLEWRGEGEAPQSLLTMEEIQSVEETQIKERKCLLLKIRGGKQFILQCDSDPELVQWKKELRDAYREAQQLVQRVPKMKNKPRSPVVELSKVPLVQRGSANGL
Summary of the method: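 GRK2 (2 nM) reacted with 20 μM ATP and GRKtide 1.2 mg/mL in pH 7.5 HEPES/MgCl2 buffer, 180 min at room temperature; compounds in 10-point 3.16-fold series, top final 1 μM. ADP formed detected by ADP-Glo luminescence; % inhibition against no-compound and no-enzyme controls.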

PAXF1657 KO Clone #4 = test: 7-day cellular proliferation assay (CellTiter-Glo), PAXF1657 KO Clone #4; type: cell-based; details: 168 h, 7-day, read-out: 7-day proliferation assay: IC50 GeoMean (uM) [Cell Line: PAXF1657 KO Clone #4]
Summary of the method: as §1

| SMILES | IC50 (PAXF1657 EV) [µM] | IC50 (GRK2) [nM] | IC50 (PAXF1657 KO Clone #4) [µM] |
| --- | --- | --- | --- |
| Cc1ncsc1-c1ccc(CNC(=O)[C@@H]2C[C@@H](O)CN2C(=O)[C@@H](NC(=O)COCCOCCOCCOCCOCCOCCCCCCOc2cccc(CNC(=O)c3cccc(NCc4nnc(-c5ccncn5)n4C)c3)c2)C(C)(C)C)cc1 [Compound D100] | > 10 | < 100 | > 10 |
| Cc1ncsc1-c1ccc(CNC(=O)[C@@H]2C[C@@H](O)CN2C(=O)[C@@H](NC(=O)COCCOCCCCCCOc2cccc(CNC(=O)c3cccc(NCc4nnc(-c5ccncn5)n4C)c3)c2)C(C)(C)C)cc1 [Compound D101] | < 1 | < 100 | 1 to 10 |
